The test has as its target ROCK2 (Homo sapiens (Human), UniProt O75116). Description: ROCK assay (LABCHIP 3000 peptide phosphorylation assay). It counts as biochemical. The settings on record: 5 μM ATP, 1.5 μM peptide substrate, dose-response. In outline: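 Rho kinase variants in 20 mM HEPES pH 7.5, 20 mM MgCl2, 0.015% Brij-35, 4 mM DTT, 5 μM ATP, 1.5 μM FITC-AHA-AKRRRLSSLRA-OH peptide; DMSO <2%. EDTA-stopped; phosphorylated/non-phosphorylated peptide separated by microfluidic LabChip readout. Dose-response inhibition curve-fitted to give IC50.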
Chain of ROCK2 (O75116 whole entry, species assumed): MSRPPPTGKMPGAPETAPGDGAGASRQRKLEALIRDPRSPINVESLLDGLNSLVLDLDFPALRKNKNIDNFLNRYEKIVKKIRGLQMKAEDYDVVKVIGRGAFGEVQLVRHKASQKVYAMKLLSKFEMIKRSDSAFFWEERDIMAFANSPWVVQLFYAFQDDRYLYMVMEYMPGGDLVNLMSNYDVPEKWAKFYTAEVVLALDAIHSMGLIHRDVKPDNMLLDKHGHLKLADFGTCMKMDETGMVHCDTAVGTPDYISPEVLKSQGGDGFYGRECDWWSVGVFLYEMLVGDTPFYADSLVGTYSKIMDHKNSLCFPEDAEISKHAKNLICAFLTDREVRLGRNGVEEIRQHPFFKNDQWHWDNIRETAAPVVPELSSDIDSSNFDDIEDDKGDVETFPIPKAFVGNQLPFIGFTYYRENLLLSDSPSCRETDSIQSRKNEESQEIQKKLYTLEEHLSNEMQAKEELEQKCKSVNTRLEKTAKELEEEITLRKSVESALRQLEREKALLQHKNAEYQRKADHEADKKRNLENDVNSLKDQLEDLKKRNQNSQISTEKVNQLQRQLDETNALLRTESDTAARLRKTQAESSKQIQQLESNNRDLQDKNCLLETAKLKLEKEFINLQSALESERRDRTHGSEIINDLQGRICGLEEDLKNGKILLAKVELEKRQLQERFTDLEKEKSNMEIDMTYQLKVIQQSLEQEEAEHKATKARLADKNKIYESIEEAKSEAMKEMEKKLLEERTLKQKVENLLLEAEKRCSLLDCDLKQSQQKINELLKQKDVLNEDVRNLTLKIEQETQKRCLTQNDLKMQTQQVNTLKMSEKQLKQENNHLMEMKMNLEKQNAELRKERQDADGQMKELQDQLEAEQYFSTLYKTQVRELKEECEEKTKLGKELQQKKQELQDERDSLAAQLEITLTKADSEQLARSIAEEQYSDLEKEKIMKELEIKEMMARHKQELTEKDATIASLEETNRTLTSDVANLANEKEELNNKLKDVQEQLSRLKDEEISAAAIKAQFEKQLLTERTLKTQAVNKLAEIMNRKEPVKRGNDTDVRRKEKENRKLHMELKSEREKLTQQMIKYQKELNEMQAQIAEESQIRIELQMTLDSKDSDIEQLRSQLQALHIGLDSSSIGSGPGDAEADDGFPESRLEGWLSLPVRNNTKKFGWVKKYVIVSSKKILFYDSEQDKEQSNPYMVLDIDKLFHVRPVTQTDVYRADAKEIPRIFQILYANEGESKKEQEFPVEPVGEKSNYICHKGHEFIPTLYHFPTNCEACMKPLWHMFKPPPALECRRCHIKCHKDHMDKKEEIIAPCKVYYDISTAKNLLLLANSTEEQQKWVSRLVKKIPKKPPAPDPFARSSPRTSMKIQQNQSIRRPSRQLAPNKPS
Compound `COc1ccc2c(c1)CCc1sc(NC(=O)C(C)c3ccc(Oc4ncccc4C(N)=O)cc3)nc1-2` (centres unmarked) [Example 106, 2-(4-(1-((7-methoxy-4,5-dihydronaphtho[1,2-d]thiazol-2-yl)amino)-1-oxopropan-2-yl)phenoxy)nicotinamide] had a concentration for half-maximal inhibition (IC50) of 262 nM. That is a sub-micromolar value. The figure for `CC(C)(O)COc1ccc2sc(NC(=O)Cc3ccc(Oc4ncccc4C(N)=O)cc3)nc2c1` [Example 107, 2-(4-(2-((5-(2-hydroxy-2-methylpropoxy)benzo[d]thiazol-2-yl)amino)-2-oxoethyl)phenoxy)nicotinamide] is 29 nM. The figure for `CC(C)(O)COc1ccc2c(c1)CCc1sc(NC(=O)Cc3ccc(Oc4ncccc4C(N)=O)cc3)nc1-2` [Example 108, 2-(4-(2-((7-(2-hydroxy-2-methylpropoxy)-4,5-dihydronaphtho[1,2-d]thiazol-2-yl)amino)-2-oxoethyl)phenoxy)nicotinamide] is 40 nM; for `CC(C)(O)COc1ccc2nc(NC(=O)Cc3ccc(Oc4ncccc4C(N)=O)cc3)sc2c1` [Example 109, 2-(4-(2-((6-(2-hydroxy-2-methylpropoxy)benzo[d]thiazol-2-yl)amino)-2-oxoethyl)phenoxy)nicotinamide] it is 74 nM; for `CC(C)(O)COc1ccn2nc(NC(=O)Cc3ccc(Oc4ncccc4C(N)=O)c(F)c3)nc2c1` [Example 110, 2-(2-fluoro-4-(2-((7-(2-hydroxy-2-methylpropoxy)-[1,2,4]triazolo[1,5-a]pyridin-2-yl)amino)-2-oxoethyl)phenoxy)nicotinamide] it is 36 nM. The figure for `NC(=O)c1cccnc1Oc1ccc(CC(=O)Nc2nc3ccccc3n2CC(F)F)cc1F` [Example 111, 2-(4-(2-((1-(2,2-difluoroethyl)-1H-benzo[d]imidazol-2-yl)amino)-2-oxoethyl)-2-fluorophenoxy)nicotinamide] is 37 nM; for `CC(C)(O)COc1ccc2sc(NC(=O)Cc3ccc(Oc4ncccc4C(N)=O)c(Cl)c3)nc2c1` [Example 112, 2-(2-chloro-4-(2-((5-(2-hydroxy-2-methylpropoxy)benzo[d]thiazol-2-yl)amino)-2-oxoethyl)phenoxy)nicotinamide] it is 6 nM; for `CC(C)(O)COc1ccc2c(c1)CCc1sc(NC(=O)Cc3ccc(Oc4ncccc4C(N)=O)c(Cl)c3)nc1-2` [Example 113, 2-(2-chloro-4-(2-((7-(2-hydroxy-2-methylpropoxy)-4,5-dihydronaphtho[1,2-d]thiazol-2-yl)amino)-2-oxoethyl)phenoxy)nicotinamide] it is 58 nM.

For `CC(C)(O)COc1ccc2c(c1)N(C(=O)Cc1ccc(Oc3ncccc3C(N)=O)c(F)c1)CC2` [Example 114, 2-(2-fluoro-4-(2-(6-(2-hydroxy-2-methylpropoxy)indolin-1-yl)-2-oxoethyl)phenoxy)nicotinamide], the IC50 came out at 162 nM. `COc1ccc2c(c1)CCc1sc(NC(=O)Cc3ccc(Oc4ncccc4C(N)=O)c(Cl)c3)nc1-2` [Example 116, 2-(2-chloro-4-(2-((7-methoxy-4,5-dihydronaphtho[1,2-d]thiazol-2-yl)amino)-2-oxoethyl)phenoxy)nicotinamide]: half-maximal inhibition (IC50) was put at 8 nM. The figure for `COc1ccc2sc(NC(=O)Cc3ccc(Oc4ncccc4C(N)=O)c(OC)c3)nc2c1` [Example 117, 2-(2-methoxy-4-(2-((5-methoxybenzo[d]thiazol-2-yl)amino)-2-oxoethyl)phenoxy)nicotinamide] is 139 nM; for `COc1cc(CC(=O)Nc2nc3cc(OCC(C)(C)O)ccc3s2)ccc1Oc1ncccc1C(N)=O` [Example 118, 2-(4-(2-((5-(2-hydroxy-2-methylpropoxy)benzo[d]thiazol-2-yl)amino)-2-oxoethyl)-2-methoxyphenoxy)nicotinamide] it is 650 nM. The figure for `COc1ccn2nc(NC(=O)Cc3ccc(Oc4ncccc4C(N)=O)c(Br)c3)nc2c1` [Example 119, 2-(2-bromo-4-(2-((7-methoxy-[1,2,4]triazolo[1,5-a]pyridin-2-yl)amino)-2-oxoethyl)phenoxy)nicotinamide] is 6 nM; for `COc1ccc2c(c1)nc(NC(=O)Cc1ccc(Oc3ncccc3C(N)=O)c(F)c1)n2CC(F)F` [Example 120, 2-(4-(2-((1-(2,2-difluoroethyl)-5-methoxy-1H-benzo[d]imidazol-2-yl)amino)-2-oxoethyl)-2-fluorophenoxy)nicotinamide] it is 23 nM.

`NC(=O)c1cccnc1Oc1ccc(CC(=O)Nc2nc3ccc(OC(F)F)nc3s2)cc1Cl` [Example 121, 2-(2-chloro-4-(2-((5-(difluoro-methoxy)thiazolo-[5,4-b]pyridin-2-yl)amino)-2-oxoethyl)phenoxy)-nicotinamide] showed an IC50 of 45 nM. This IC50 lies about 2-fold higher than the previous one. The figure for `NC(=O)c1cccnc1Oc1ccc(CC(=O)Nc2n[nH]c3ccccc23)cc1Cl` [Example 122, 2-(4-(2-((1H-indazol-3-yl)-amino)-2-oxoethyl)-2-chlorophenoxy)-nicotinamide] is 97 nM; for `COc1ccc2nc(NC(=O)Cc3ccc(Oc4ncccc4C(N)=O)c(F)c3)n(CC(F)F)c2c1` [Example 123, 2-(4-(2-((1-(2,2-difluoroethyl)-6-methoxy-1H-benzo-[d]imidazol-2-yl)-amino)-2-oxoethyl)-2-fluorophenoxy)-nicotinamide] it is 18 nM.

For `COc1ccn2nc(NC(=O)Cc3ccc(Oc4ncccc4C(N)=O)cc3)nc2c1` [Example 124, 2-(4-(2-((7-methoxy-[1,2,4]-triazolo[1,5-a]-pyridin-2-yl)-amino)-2-oxo-ethyl)phenoxy)-nicotinamide], it took 68.5 nM to reach half-maximal inhibition (IC50). Consider `COc1ccn2nc(NC(=O)Cc3ccc(Oc4ncccc4C(N)=O)c(Cl)c3)nc2c1` [Example 125, 2-(2-chloro-4-(2-((7-methoxy-[1,2,4]triazolo-[1,5-a]pyridin-2-yl)amino)-2-oxoethyl)phenoxy)-nicotinamide], for which 12 nM corresponded to half-maximal inhibition (IC50). The figure for `NC(=O)c1cccnc1Oc1ccc(CC(=O)Nc2nc3cccc(C(F)(F)F)n3n2)cc1F` [Example 126, 2-(2-fluoro-4-(2-oxo-2-((5-(trifluoro-methyl)-[1,2,4]-triazolo[1,5-a]-pyridin-2-yl)amino)-ethyl)phenoxy)-nicotinamide] is 82 nM. Take `NC(=O)c1cccnc1Oc1ccc(CC(=O)Nc2nc3c(F)cccn3n2)cc1F` [Example 127, 2-(2-fluoro-4-(2-((8-fluoro-[1,2,4]-triazolo[1,5-a]-pyridin-2-yl)amino)-2-oxoethyl)phenoxy)-nicotinamide]: half-maximal inhibition (IC50) required 127 nM. This IC50 lies about 1.5-fold higher than the previous one.

The compound `NC(=O)c1cccnc1Oc1ccc(CC(=O)Nc2nc3ccc(F)cn3n2)cc1F` [Example 128, 2-(2-fluoro-4-(2-((6-fluoro-[1,2,4]-triazolo[1,5-a]-pyridin-2-yl)amino)-2-oxoethyl)phenoxy)-nicotinamide] returned an IC50 of 301 nM. The figure for `NC(=O)c1cccnc1Oc1ccc(CC(=O)Nc2nc3ccc(C(F)(F)F)cn3n2)cc1F` [Example 129, 2-(2-fluoro-4-(2-oxo-2-((6-(trifluoromethyl)-[1,2,4]triazolo-[1,5-a]pyridin-2-yl)amino)ethyl)-phenoxy)nicotin-amide] is 69 nM; for `Cc1cc2nc(NC(=O)Cc3ccc(Oc4ncccc4C(N)=O)c(F)c3)nn2cc1C` [Example 130, 2-(4-(2-((6,7-dimethyl-[1,2,4]-triazolo[1,5-a]-pyridin-2-yl)-amino)-2-oxoethyl)-2-fluorophenoxy)-nicotinamide] it is 23 nM; for `Cc1ccc2nc(NC(=O)Cc3ccc(Oc4ncccc4C(N)=O)c(F)c3)nn2c1C` [Example 131, 2-(4-(2-((5,6-dimethyl-[1,2,4]-triazolo[1,5-a]-pyridin-2-yl)-amino)-2-oxoethyl)-2-fluorophenoxy)-nicotinamide] it is 129 nM. The figure for `NC(=O)c1cccnc1Oc1ccc(CC(=O)Nc2nc3cc(C(F)(F)F)ccn3n2)cc1F` [Example 132, 2-(2-fluoro-4-(2-oxo-2-((7-(trifluoro-methyl)-[1,2,4]-triazolo[1,5-a]-pyridin-2-yl)amino)-ethyl)phenoxy)-nicotinamide] is 129 nM; for `NC(=O)c1cccnc1Oc1ccc(CC(=O)Nc2cn3cc(C(F)(F)F)ccc3n2)cc1F` [Example 133, 2-(2-fluoro-4-(2-oxo-2-((6-(trifluoro-methyl)imidazo-[1,2-a]pyridin-2-yl)amino)ethyl)-phenoxy)nicotin-amide] it is 198 nM; for `NC(=O)c1cccnc1Oc1ccc(CC(=O)Nc2nc3cc(Br)ccn3n2)cc1F` [Example 134, 2-(4-(2-((7-bromo-[1,2,4]triazolo[1,5-a]pyridin-2-yl)amino)-2-oxoethyl)-2-fluorophenoxy)nicotinamide] it is 44 nM. The figure for `NC(=O)c1cccnc1Oc1ccc(CC(=O)Nc2nc3cc(-c4cnn(C(F)F)c4)ccn3n2)cc1F` [Example 135, 2-(4-(2-((7-(1-(difluoro-methyl)-1H-pyrazol-4-yl)-[1,2,4]-triazolo[1,5-a]pyridin-2-yl)amino)-2-oxoethyl)-2-fluorophen-oxy)nicotin-amide] is 25 nM.

Take `Cc1nn(C)cc1-c1ccn2nc(NC(=O)Cc3ccc(Oc4ncccc4C(N)=O)c(F)c3)nc2c1` [Example 136, 2-(4-(2-((7-(1,3-dimethyl-1H-pyrazol-4-yl)-[1,2,4]-triazolo[1,5-a]pyridin-2-yl)amino)-2-oxoethyl)-2-fluorophen-oxy)nicotin-amide]: it took 11 nM to reach half-maximal inhibition (IC50). The figure for `Cn1nccc1-c1ccn2nc(NC(=O)Cc3ccc(Oc4ncccc4C(N)=O)c(F)c3)nc2c1` [Example 137, 2-(2-fluoro-4-(2-((7-(1-methyl-1H-pyrazol-5-yl)-[1,2,4]-triazolo[1,5-a]pyridin-2-yl)amino)-2-oxoethyl)-phenoxy) nicotinamide] is 13 nM; for `Cn1nccc1-c1ccc2nc(NC(=O)Cc3ccc(Oc4ncccc4C(N)=O)c(F)c3)nn2c1` [Example 138, 2-(2-fluoro-4-(2-((6-(1-methyl-1H-pyrazol-5-yl)-[1,2,4]triazolo[1,5-a]pyridin-2-yl)amino)-2-oxoethyl)phenoxy)nicotinamide] it is 39 nM.

For the origin of these results see patent US11306081B2, “Phenylacetamides as inhibitors of rock” (BRISTOL-MYERS SQUIBB COMPANY, priority 2017, dated 2022).
